{
  "source": "the OPERA property sets (Mansouri et al. 2018)",
  "note": "Where a SMILES comes first, the peptide text is derived from it.",
  "data": [
    {"values": [
      {"compound": "COC(=O)C(C)(C)S(=O)(=O)c1ccc([N+](=O)[O-])cc1", "logP": 1.38},
      {"compound": "CCCc1nc(NC(C)C)nc(N2CCOCC2)n1", "logP": 2.26},
      {"compound": "O=C1N=C(N2CCCC2)CN1c1ccc(Cl)cc1", "logP": 2},
      {"compound": "NC(Cc1ccccc1)C(=O)NC(Cc1ccc(O)cc1)C(=O)O", "note": "(stereo not drawn) (H-Phe-Tyr-OH; configuration not given here)", "logP": -1.68},
      {"compound": "COc1ccc(C2Cc3cc(SC(C)(C)C)ccc3N(CCN(C)C)C(=O)C2OC(C)=O)cc1", "note": "(stereo not given)", "logP": 5.6},
      {"compound": "COc1ccc(C2Cc3c(OC)cccc3N(CCN(C)C)C(=O)C2OC(C)=O)cc1", "note": "(stereo not given)", "logP": 3.9},
      {"compound": "COc1ccccc1CNc1ncnc2nc[nH]c12", "logP": 2.31},
      {"compound": "Cc1cc2ccc3occ(C)c3c2oc1=O", "logP": 2.97},
      {"compound": "CC(C)OC(=O)C(=Cc1ccccc1)S(=O)(=O)c1ccc(Cl)cc1", "logP": 4.18},
      {"compound": "CC(=O)NC(CCCCNC(=O)N(CCCl)N=O)C(=O)NCc1ccccc1", "note": "(stereo not given)", "logP": 1.54},
      {"compound": "CCOC(=O)c1cccc(CN)c1", "logP": 1.44},
      {"compound": "Clc1cc(Cl)c2c(c1)Oc1cc(Cl)c(Cl)c(Cl)c1O2", "logP": 6.4},
      {"compound": "c1nc(N2CCCCC2)c2[nH]cnc2n1", "logP": 2.11},
      {"compound": "O=c1[nH]c2cc(Cl)c(Cl)c([N+](=O)[O-])c2[nH]c1=O", "logP": 0.21},
      {"compound": "C=CC(=O)Oc1ccccc1", "logP": 1.94},
      {"compound": "Oc1cccc(CNc2ncnc3nc[nH]c23)c1", "logP": 1.56},
      {"compound": "CCCNC(=O)Cn1cccc(O)c1=O", "logP": -0.24},
      {"compound": "CC(C)C(Nc1ccc([N+](=O)[O-])cc1[N+](=O)[O-])C(=O)O", "note": "(stereo not given)", "logP": 2.88},
      {"compound": "CSCCC(N)C(=O)NC(Cc1ccc(O)cc1)C(=O)O", "note": "(stereo not drawn) (H-Met-Tyr-OH; configuration not given here)", "logP": -2.03},
      {"compound": "COc1ccc(C2Cc3c(Cl)cccc3N(CCN(C)C)C(=O)C2OC(C)=O)cc1", "note": "(stereo not given)", "logP": 4.4},
      {"compound": "CCC(C)C(N)C(=O)NC(C(=O)NC(C(=O)NC(C(=O)NCC(=O)O)C(C)CC)C(C)CC)C(C)CC", "note": "(stereo not given) (H-IIIIG-OH; configuration not given here)", "logP": -0.97},
      {"compound": "CCCOc1ccccc1NC(=O)OCCN1CCCCC1", "logP": 4.23},
      {"compound": "CSc1cccc2nc(N)nc(N)c12", "logP": 1.81},
      {"compound": "CC(C)(C)c1ccc(C(O)CCCN2CCC(C(O)c3ccccc3)CC2)cc1", "note": "(stereo not given)", "logP": 4.06},
      {"compound": "O=C1c2ccccc2-c2cc([N+](=O)[O-])ccc21", "logP": 3.06},
      {"compound": "CC(C)NCC(O)COc1ccc(NC=O)cc1", "note": "(stereo not given)", "logP": 0.54},
      {"compound": "CC(=O)NN=Cc1c(CO)ccc(C)c1O", "logP": 1.71},
      {"compound": "Cc1cccc(C)c1CCc1cnc[nH]1", "logP": 2.91},
      {"compound": "COc1ccc(C2Cc3cc(Sc4ccccc4)ccc3N(CCN(C)C)C(=O)C2OC(C)=O)cc1", "note": "(stereo not given)", "logP": 5.8},
      {"compound": "O=C(Nc1ccccc1C(=O)O)c1ccccc1", "logP": 3.54},
      {"compound": "OCCN1CCN(CCCOn2nnc3ccccc32)CC1", "logP": 0.43},
      {"compound": "O=C(Nc1ccccc1)NC1CC(C(=O)O)Nc2cc(Cl)cc(Cl)c21", "note": "(stereo not given)", "logP": 3.28},
      {"compound": "COc1cc2ncnc(Nc3cc(F)cc(C(F)(F)F)c3)c2cc1OC", "logP": 4.66},
      {"compound": "Cc1cc2ccc3occc3c2oc1=O", "logP": 2.57},
      {"compound": "C[N+](C)([O-])CCCCc1ccccc1", "logP": 0.46},
      {"compound": "COCc1[nH]c(-c2ccc(OCC(O)CNCCc3ccc(OC)c(OC)c3)cc2)nc1C", "note": "(stereo not given)", "logP": 2.8},
      {"compound": "CCCCCOC1CCC(NC(=O)NC23CC4CC(CC(C4)C2)C3)CC1", "note": "(stereo not given)", "logP": 5},
      {"compound": "CCOCCOCCOCCCCCNC(=O)NC12CC3CC(CC(C3)C1)C2", "logP": 3.6},
      {"compound": "O=C(NC1CCCCCCC1)NS(=O)(=O)c1cnccc1NC1CCCCC1", "logP": 4.97},
      {"compound": "c1ccc(CCCCNc2[nH]cnc3ncnc2-3)cc1", "logP": 3.29},
      {"compound": "Cc1ccc(C(=O)NN=Cc2c(CO)ccc(C)c2O)cc1", "logP": 3.39},
      {"compound": "Nc1nc(N)c2c(N)cccc2n1", "logP": 0.3},
      {"compound": "N=C1C=CC(=C(c2ccc(N)cc2)c2ccc(N)cc2)C=C1", "logP": -0.21},
      {"compound": "O=C1C=C(N2CCCCC2)CN1c1ccc(Cl)cc1", "logP": 3},
      {"compound": "COc1ccc(CCNCC(O)COc2ccc(-c3nc(-c4cccs4)c[nH]3)cc2C)cc1OC", "note": "(stereo not given)", "logP": 4.8},
      {"compound": "O=C(O)CCCCCON=C(c1ccnnc1)c1cccc(C(F)(F)F)c1", "logP": 3.38},
      {"compound": "CC(C)CC(N)C(=O)NC(CC(C)C)C(=O)NC(Cc1ccc(O)cc1)C(=O)O", "note": "(stereo not drawn) (H-Leu-Leu-Tyr-OH; configuration not given here)", "logP": -1.34},
      {"compound": "COc1ccc(CCNCC(O)COc2ccc(-c3nc(Br)c[nH]3)cc2Cl)cc1OC", "note": "(stereo not given)", "logP": 4.3},
      {"compound": "CC(C)NC(=NC#N)NS(=O)(=O)c1cnccc1Nc1cccc(Cl)c1", "logP": 2.14},
      {"compound": "CN(C)CCOc1ccccc1Cl", "logP": 2.87},
      {"compound": "NC(Cc1ccc(O)cc1)C(=O)NCC(=O)NC(Cc1ccccc1)C(=O)O", "note": "(stereo not drawn) (H-Tyr-Gly-Phe-OH; configuration not given here)", "logP": -1.86},
      {"compound": "C1CCC2OC2C1", "note": "(stereo not given)", "logP": 1.26},
      {"compound": "O=C1C=C(N2CCCC2)C(=O)N1c1ccc(Cl)cc1", "logP": 3},
      {"compound": "COC(=O)c1[nH]cc(-c2ccc(Br)cc2)c1N1CCOCC1", "logP": 3.8},
      {"compound": "c1ccc2c(c1)OCC(Cc1nc3ccccc3[nH]1)O2", "note": "(stereo not given)", "logP": 3.29},
      {"compound": "Cc1cc2c(ccc3c(C)cc(=O)n(C)c32)o1", "logP": 3.08},
      {"compound": "CC(=NNC(=O)c1cccc(Br)c1)c1cnccn1", "logP": 2.9},
      {"compound": "CSCCC(NC(=O)C(N)CC(C)C)C(=O)O", "note": "(stereo not drawn) (H-Leu-Met-OH; configuration not given here)", "logP": -1.87},
      {"compound": "CN1CCN2c3ccccc3Cc3ccccc3C2C1", "note": "(stereo not given)", "logP": 4.24},
      {"compound": "c1ccc2c(c1)OCC(C1=NCCN1)O2", "note": "(stereo not given)", "logP": 1.63}
    ]}
  ]
}
